Tests used:
Assay in all cases: relative viability (nuclei count vs DMSO), 5 days (fraction); higher = more cells survive
[1] = compound: O=S(=O)(c1ccccc1)N(CC(F)(F)F)c1ccc(C(O)(C(F)(F)F)C(F)(F)F)cc1 + CS(=O)(=O)N1CCN(Cc2cc3nc(-c4cccc5[nH]ncc45)nc(N4CCOCC4)c3s2)CC1 [Pictilisib] (partner 1 µM)
Procedure, shortened: (§1)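 One day after seeding in 1536-well plates, lung cancer cell lines were dosed by pin tool. Dosing was either single-drug or a fixed anchor-drug dose plus five library-drug doses (not always all listed) in √10 steps. After 5 days, nuclei were stained in one fix-and-stain step and counted on 4× images, and relative viability is the nuclei count of treated wells over that of vehicle wells, given as the median of duplicate plates.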

[2] = compound: O=S(=O)(c1ccccc1)N(CC(F)(F)F)c1ccc(C(O)(C(F)(F)F)C(F)(F)F)cc1 + NC(=O)Nc1cc(-c2cccc(F)c2)sc1C(=O)N[C@H]1CCCNC1 [AZD7762] (partner 0.2 µM)
Procedure, shortened: as §1

RO-3306 + Vorinostat = compound: C1=CC2=C(C=CC(=C2)C=C3C(=O)NC(=NCC4=CC=CS4)S3)N=C1 [RO-3306] + O=C(CCCCCCC(=O)Nc1ccccc1)NO [Vorinostat] (partner 1 µM)
Procedure, shortened: as §1

RO-3306 + Bortezomib = compound: C1=CC2=C(C=CC(=C2)C=C3C(=O)NC(=NCC4=CC=CS4)S3)N=C1 [RO-3306] + CC(C)C[C@H](NC(=O)[C@H](Cc1ccccc1)NC(=O)c1cnccn1)B(O)O [Bortezomib] (partner 0.002 µM)
Procedure, shortened: as §1

| Cell Line | relative viability ([1]; first compound 0.8 µM) | relative viability ([1]; first compound 2.53 µM) | relative viability ([1]; first compound 8 µM) | relative viability ([2]; first compound 0.8 µM) | relative viability ([2]; first compound 2.53 µM) | relative viability ([2]; first compound 8 µM) | relative viability (RO-3306 + Vorinostat; first compound 0.01 µM) | relative viability (RO-3306 + Vorinostat; first compound 0.1 µM) | relative viability (RO-3306 + Vorinostat; first compound 0.3162 µM) | relative viability (RO-3306 + Vorinostat; first compound 1 µM) | relative viability (RO-3306 + Bortezomib; first compound 0.01 µM) | relative viability (RO-3306 + Bortezomib; first compound 0.03162 µM) | relative viability (RO-3306 + Bortezomib; first compound 0.1 µM) | relative viability (RO-3306 + Bortezomib; first compound 0.3162 µM) | relative viability (RO-3306 + Bortezomib; first compound 1 µM) | relative viability (RO-3306 + Vorinostat; first compound 0.03162 µM) |
| --- | --- | --- | --- | --- | --- | --- | --- | --- | --- | --- | --- | --- | --- | --- | --- | --- |
| NCI-H23 | 0.641 | 0.521 | 0.538 | 0.22 | 0.293 | 0.246 | 0.828 | 0.547 | 0.55 | 0.501 | 1.04 | 0.755 | 1.1 | 0.944 | 0.773 | – |
| NCI-H2405 | 0.471 | 0.455 | 0.418 | 0.907 | 0.665 | 0.705 | 1.01 | 0.968 | 0.916 | 0.231 | 1.07 | 0.963 | 0.982 | 0.959 | 1.03 | 0.949 |
| HARA | 0.43 | 0.317 | 0.293 | 0.437 | – | 0.318 | 0.493 | 0.527 | 0.638 | 0.445 | 1.15 | 0.74 | 1.11 | 1.11 | 0.991 | 0.404 |
| HCC-44 | 0.657 | 0.52 | 0.688 | 1.04 | 0.988 | 0.994 | 1.1 | 1.08 | 1.13 | 1.17 | 0.879 | 0.914 | 0.926 | 0.882 | 0.711 | 1.15 |
| CAL-12T | – | 0.342 | 0.542 | 0.482 | 0.566 | 0.522 | 1.08 | 0.647 | 0.809 | 0.694 | 0.956 | – | – | 0.992 | 1.09 | 0.66 |
| NCI-H838 | 0.46 | 0.403 | 0.642 | 0.998 | 0.894 | 0.871 | 0.726 | 0.722 | 0.738 | 0.674 | 0.825 | 0.523 | 0.661 | 0.808 | 0.685 | 0.694 |
| LK-2 | 0.628 | 0.752 | 0.493 | 0.488 | 0.682 | 0.412 | 0.293 | 0.324 | 0.275 | 0.295 | – | – | – | – | – | 0.248 |
| NCI-H358 | 0.274 | 0.28 | 0.286 | 0.385 | 0.369 | 0.371 | 0.821 | 0.596 | 0.638 | 0.524 | – | – | – | – | – | 0.603 |
| SW 1573 | 0.504 | 0.38 | 0.45 | – | – | – | 0.67 | 0.738 | 0.715 | 0.763 | 1.22 | – | 0.924 | 0.972 | 0.894 | 0.598 |
| LCLC-103H | 0.536 | 0.592 | 0.651 | 0.841 | 0.826 | 0.948 | 0.903 | 0.796 | 0.812 | 0.766 | 1.06 | 1.03 | 1.01 | 0.927 | 0.815 | 0.663 |
| HCC-827 | 1.08 | 1.05 | 1.05 | 0.209 | 0.187 | 0.178 | 0.946 | 0.881 | 0.789 | 0.859 | 0.995 | 0.907 | 1.13 | 1.02 | 1.04 | 0.7 |
| NCI-H1666 | 0.434 | 0.418 | 0.398 | 0.806 | 0.76 | 0.716 | 0.803 | 1.04 | 1.05 | 0.972 | 0.848 | 0.734 | 0.713 | 0.765 | 0.598 | 0.952 |
| NCI-H460 | 0.436 | 0.333 | 0.362 | 0.571 | 0.555 | 0.625 | 1.19 | 0.677 | 0.976 | 0.448 | 1.37 | – | 1.1 | 1.34 | 0.776 | 0.517 |
| NCI-H2087 | 0.868 | 0.993 | 0.848 | 1.4 | 1.31 | 1.31 | 0.775 | 0.756 | 0.864 | 0.86 | 0.726 | 0.843 | 0.729 | 0.947 | 0.738 | 0.805 |
| NCI-H2085 | 0.428 | 0.543 | 0.455 | 0.941 | 0.799 | 0.913 | 0.83 | 0.775 | 0.781 | 0.8 | 1.09 | 0.956 | 0.935 | 0.993 | 1.04 | 0.733 |
| NCI-H1299 | 0.875 | 0.78 | 0.663 | – | – | – | – | – | – | – | 1.07 | 1.07 | 1.04 | 1.07 | 1.05 | – |
| ChaGo-K-1 | 0.647 | 0.693 | 1.24 | 0.952 | 0.888 | 0.791 | 0.808 | 0.699 | 0.782 | 0.557 | 1.01 | 0.935 | 0.656 | 0.756 | 0.673 | 0.654 |
| A-427 | 0.708 | 0.677 | 0.822 | 0.879 | 0.734 | 0.695 | 0.843 | 0.898 | 0.911 | 0.865 | 0.935 | 1.04 | 0.942 | 0.906 | 0.478 | 0.818 |
| NCI-H2170 | 0.305 | 0.291 | 0.307 | 0.994 | 0.817 | 0.961 | 0.901 | 0.886 | 0.842 | 0.856 | – | – | – | – | – | 0.568 |
| NCI-H441 | 0.523 | 0.401 | 0.495 | 1.34 | 1.2 | 0.996 | 0.888 | 0.837 | 1.23 | 0.638 | 0.771 | 0.4 | 0.647 | 0.449 | 0.31 | 0.495 |
| NCI-H2347 | 0.516 | 0.597 | 0.81 | 0.942 | 0.724 | 0.742 | 0.539 | 0.51 | 0.532 | 0.701 | 1.07 | 0.633 | 0.98 | 0.823 | 0.711 | 0.541 |
